Assay results as given in publication PMC4266452, “Prediction of Thorough QT study results using action potential simulations based on ion channel screens” (Journal of Pharmacological and Toxicological Methods, 2014).
pIC50: −log10 of the molar value. Like-named read-outs stand apart in the source and are kept apart here.

Key:
hERG [1] = molecular target: T1, hERG (Homo sapiens, UniProt Q12809); assay: IonWorks Quattro hERG screen (AstraZeneca, Q)
[2] = system: QT interval on the body surface ECG; details: cited from earlier work
Kv4.3/KChIP2.2 = molecular target: T2, Kv4.3/KChIP2.2 (Homo sapiens, UniProt Q9UK17); assay: IonWorks Quattro Kv4.3/KChIP2.2 screen (AstraZeneca, Q); type: cell-based; details: IonWorks Quattro, −log10 of IC50 in Molar, Hill n = 1
T2 sequence (Q9UK17 1-655): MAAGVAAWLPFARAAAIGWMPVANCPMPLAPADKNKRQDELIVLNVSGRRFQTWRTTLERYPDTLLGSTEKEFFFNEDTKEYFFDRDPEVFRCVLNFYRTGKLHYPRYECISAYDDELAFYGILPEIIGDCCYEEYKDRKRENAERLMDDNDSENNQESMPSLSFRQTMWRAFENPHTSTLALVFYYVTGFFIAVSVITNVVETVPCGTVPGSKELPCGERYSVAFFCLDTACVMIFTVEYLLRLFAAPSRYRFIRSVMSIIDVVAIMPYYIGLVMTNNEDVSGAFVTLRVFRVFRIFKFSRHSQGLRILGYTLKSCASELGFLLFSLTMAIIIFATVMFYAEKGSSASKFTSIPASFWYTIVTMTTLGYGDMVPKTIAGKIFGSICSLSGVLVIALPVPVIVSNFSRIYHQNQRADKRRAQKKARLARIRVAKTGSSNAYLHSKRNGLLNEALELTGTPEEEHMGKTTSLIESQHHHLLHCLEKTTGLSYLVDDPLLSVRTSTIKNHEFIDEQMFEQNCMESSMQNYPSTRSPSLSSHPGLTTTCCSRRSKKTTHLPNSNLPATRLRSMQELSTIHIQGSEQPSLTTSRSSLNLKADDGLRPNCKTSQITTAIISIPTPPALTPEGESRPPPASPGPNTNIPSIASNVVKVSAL
T2 sequence (Q9NS61 1-270 partner): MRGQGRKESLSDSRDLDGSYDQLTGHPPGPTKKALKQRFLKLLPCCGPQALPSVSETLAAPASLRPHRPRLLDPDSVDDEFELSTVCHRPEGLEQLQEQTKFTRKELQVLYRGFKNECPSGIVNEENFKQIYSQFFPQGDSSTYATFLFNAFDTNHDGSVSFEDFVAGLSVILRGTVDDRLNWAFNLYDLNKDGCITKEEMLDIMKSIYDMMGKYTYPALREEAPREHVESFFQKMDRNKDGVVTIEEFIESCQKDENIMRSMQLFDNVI

hERG [3] = molecular target: T1, hERG; details: cited from earlier work
[4] = Plasma concentration (Cmax) during the TQT study, total and calculated free; type: in vivo, human; details: for Cmax TOTAL: calculated from ng/mL and molecular weight
[5] = ref Gintant (2011), cited from earlier work
CaV1.2 [6] = molecular target: T3, CaV1.2 (Homo sapiens, UniProt Q13936); assay: IonWorks Quattro CaV1.2 screen (AstraZeneca, Q)
[7] = ref Gintant (2011); cited from earlier work
NaV1.5 [8] = molecular target: T4, NaV1.5 (Homo sapiens, UniProt Q14524); assay: IonWorks Quattro NaV1.5 screen (AstraZeneca, Q)
CaV1.2 [9] = molecular target: T3, CaV1.2; assay: IonWorks Barracuda CaV1.2 screen (GSK, B)
NaV1.5 [10] = molecular target: T4, NaV1.5; assay: Second IonWorks Quattro NaV1.5 screen (GSK, Q2); details: second independent Quattro screening; −log10 of IC50 in Molar; 0.0 = pIC50 ≤ 0 fitted
KCNQ1/MinK = KCNQ1/MinK (Homo sapiens, UniProt P51787); assay: IonWorks Quattro KCNQ1/MinK screen (AstraZeneca, Q); details: −log10 of IC50 in Molar
[11] = Cmax high, calculated with PPB and molecular weight
[12] = Cmax low, calculated with PPB and molecular weight
[13] = IonWorks Quattro, −log10 of IC50 in Molar, Hill n = 1, 0.0 = pIC50 ≤ 0 fitted
[14] = Hill n = 1, 0.0 = pIC50 ≤ 0 fitted

SMILES | pIC50 (hERG [1]) | Kv4.3 pIC50 (Q) (Kv4.3/KChIP2.2; 0.0 = pIC50 ≤ 0 fitted) | Free plasma concentration ([4]; Cmax high) | Cmax TOTAL ([4]; Cmax high) | Cmax FREE ([4]; Cmax high, calculated with PPB) | Cmax FREE [4, 11] | Free plasma concentration ([4]; Cmax low) | Cmax TOTAL ([4]; Cmax low) | Cmax FREE ([4]; Cmax low, calculated with PPB) | Cmax FREE [4, 12] | Cmax TOTAL ([5]; Cmax high) | Cmax TOTAL ([5]; Cmax low) | PPB (percent plasma binding) [7] | NaV1.5 pIC50 (Q) (NaV1.5 [8]; [13]) | CaV1.2 pIC50 (B) (CaV1.2 [9]) | KCNQ1 pIC50 (Q) (KCNQ1/MinK; [14]) | CaV1.2 pIC50 (Q) (CaV1.2 [6]; [13]) | also measured
Cc1c(O)cccc1C(=O)N[C@@H](CSc1ccccc1)[C@H](O)CN1C[C@H]2CCCC[C@H]2C[C@H]1C(=O)NC(C)(C)C [Nelfinavir] | 1.50 | 2.3 | 80.63 nM | 19197.2 nM | 45.78 ng/mL | 80.6284 nM | 61.4 nM | 14618.1 nM | 34.86 ng/mL | 61.3959 nM | 10900 ng/mL | 8300 ng/mL |  |  |  |  |  | upper 90% confidence limit of QTc change ([2]; at every time point, ref Damle et al., J Clin Pharm. (49):291-300. 2009): a) upper 90% confidence limit below 10 msec at every; TQT study outcome in words (COMMENTS) ([2]; ref Gintant (2011)): Damle et al concludes negative TQT study since; relationship between exposure and QTc in words (COMMENTS) ([2]; ref Gintant (2011)): time point and b) PK-PD model slopes were negative; hERG pIC50 (M) (hERG [3]): 4.9
Cc1nc2n(c(=O)c1CCN1CCC(c3noc4cc(F)ccc34)CC1)CCCC2O (stereo not shown) [Paliperidone] |  | 4.2 | 71.54 nM | 264.953 nM | 30.51 ng/mL | 71.5374 nM | 22.16 nM | 82.0652 nM | 9.45 ng/mL | 22.1576 nM | 113 ng/mL | 35 ng/mL | 73% PPB | 4.6 | 3.0 |  |  | CaV1.2 pIC50 (Q) (CaV1.2 [6]): 3.4; NaV1.5 pIC50 (Q2) (NaV1.5 [10]): 3.8
C[C@H](Cc1cc2c(c(C(N)=O)c1)N(CCCO)CC2)NCCOc1ccccc1OCC(F)(F)F [Silodosin] |  | 3.5 | 14.53 nM | 290.598 nM | 7.2 ng/mL | 14.530 nM | 4.288 nM | 85.767 nM | 2.125 ng/mL | 4.288 nM | 144 ng/mL | 42.5 ng/mL | 95% PPB | 4.2 |  | 3.6 | 3.1 | IC50 at 3 min (hERG [1]; human, CHO K1 cells stably transfected with human ERG): 0.0251 mM
CCN(CC)CCNC(=O)c1c(C)[nH]c(/C=C2\C(=O)Nc3ccc(F)cc32)c1C [Sunitinib] |  | 4.3 | 7.51 nM | 150.207 nM | 4.000 ng/mL | 7.510 nM |  |  |  |  | 80.000 ng/mL |  |  |  |  |  | 4.1 | CaV1.2 pIC50 (B) (CaV1.2 [9]; IonWorks Barracuda, −log10 of IC50 in Molar, Hill n = 1, 0.0 = pIC50 ≤ 0 fitted): 3.7
Cc1cn([C@@H]2C[C@@H](O)[C@H](CO)O2)c(=O)[nH]c1=O [Telbivudine] | 2.30 |  |  | 27246.8 nM | 6382.2 ng/mL | 26347.7 nM |  | 9082.28 nM | 2127.4 ng/mL | 8782.56 nM | 6600 ng/mL | 2200 ng/mL | 3.3% |  |  | 3.6 |  | NaV1.5 pIC50 (Q) (NaV1.5 [8]): 2.5
Cc1ccc(O)c([C@H](CCN(C(C)C)C(C)C)c2ccccc2)c1 [Tolterodine] |  |  | 1.343 nM | 36.307 nM | 0.703 ng/mL | 1.343 nM | 0.6434 nM | 17.389 nM | 0.337 ng/mL | 0.643 nM | 19.00 ng/mL | 9.10 ng/mL | 96.30% |  | 4.6 |  |  | KCNQ1 pIC50 (Q) (KCNQ1/MinK; Hill n = 1, […]): 4.1; Kv4.3 pIC50 (Q) (Kv4.3/KChIP2.2; […]): 4.9
